Test results from publication PMC10935062 (Acta Pharmaceutica Sinica. B, 2023).

Assay: Water solubility
Format: physicochemical

water solubility: superior water solubility
SMILES: NC(=O)c1ccc(C(=O)NOCc2ccc(Sc3ccc(N)cc3)c(C(F)(F)F)c2)cc1 [compound 11p]
